In patent US20210330736A1 (UNIVERSITEIT VAN AMSTERDAM, priority 2018, published 2021):

How the values were obtained:
[1] = tested on: Ser40 phosphorylation of Th in HEK cells transfected with Th; experiment: Th Ser40 phosphorylation in HEK cells transfected with Th (western blot); assay type: cell-based; conditions: HEK-293 transfected with Th, low concentrations (1 μM)
Protocol: FIG. 3. HEK cells are a suitable model to study GUCY2C-induced Ser40 phosphorylation. (A) RT-qPCR data from intact HEK extracts. Input material was 10 ng of total RNA. Cp corresponds to the cycle number in which the expression starts to be considered positive. (−) represents the water control, which is negative in every case. (B) HEK cultures were transfected with Th and treated with a cGMP analogue 48 hours post-plating. Changes in Ser40 phosphorylation were studied. The graph represents the statistical analysis (n=6; Mean±SEM). Unpaired Student's t-test (p-value: ****<0.0001). Hereon, ‘Fold Change’ corresponds to the ratio P-Ser40/Total Th.
FIG. 7. PDE2a is an important effector regulating Ser40 phosphorylation in MN9D cells. BAY-60-7550 dose-curve and representative examples in MN9D (n=9, red) and HEK cells (n=4, blue) (Mean±SEM). Cells were treated with various concentrations of BAY 60-7750 and analyzed for Th phosphorylation on Ser40 , total Th and actin.
HEK cells were maintained in 100-mm Petri dishes and grown in DMEM medium supplemented with L-glutamine, penicillin-streptomycin (Pen&Strep) and 10% heat-inactivated fetal bovine serum (HIFBS). Growing conditions were 37° C. and 5% CO2. For every-other-day passages, HEK cultures were split at a 1:3 dilution. From Friday to Monday, the split proportion was doubled for all cell lines. For passaging, cultures were rinsed with PBS and incubated with 1 mL of trypsin during 5 minutes. Cells were resuspended in growth medium and finally split to the proper dilution. The experiments were performed in 12-well plates. For immunocytochemistry analysis, sterile 18-mm coverslips were added prior to the plating. 500 !μL of cell resuspension was seeded in each well. If experiments were to be performed 48 hours after the plate preparation, 1:5 was the seeding ratio for HEK cells. When the experiments took place 96 hours post-plating, 1:7 was the working dilution for HEK cells. Unless otherwise stated, HEK cultures were processed 96 hours post-plating.
HEK cells were transfected using the calcium-phosphate method. […]

[2] = target: GUCY2C (Homo sapiens, UniProt P25092); experiment: GUCY2C ligand analysis in HEK-293 cells transfected with GUCY2C and Th (WES); assay type: cell-based; parameters: expressed in transfected cells; host or cells: HEK-293 cells transfected with GUCY2C and Th; conditions: 10 μM, Th Ser40 corrected for total Th, n=3
Protocol: Potential GUCY2C ligands were tested in HEK-293 cells transfected with GUCY2C and Th and subsequently treated and analyzed by automated western (WES). Th Ser40 was corrected for total Th. Controls were set to 1. Significance is determined by two-tailed t-test on n=3. * p<0.05, **p<0.01, ***p<0.005, “”p<0.001. A) Guanylin control 10 μM. B) Peptides 1 to 5 in an amount of 10 μM. C) Peptides 6 to 11 in an amount of 10 μM.
We designed novel peptides with different activities with respect to endogenous GUCY2C ligands (Table 3). The peptides were analyzed in Th and GUCY2C transfected HEK-293 cells and subsequently tested ex-vivo in mice striatal slices. […] We synthezised uroguanylin and heat stable toxin as controls for the synthezised peptides and they thus are from a different source than the commercially available uroguanylin and heat stable toxin. […] Possibly the effects of the peptides can differ depending on the area in the striatum which is stimulated.

Chain of GUCY2C (P25092 24-1073): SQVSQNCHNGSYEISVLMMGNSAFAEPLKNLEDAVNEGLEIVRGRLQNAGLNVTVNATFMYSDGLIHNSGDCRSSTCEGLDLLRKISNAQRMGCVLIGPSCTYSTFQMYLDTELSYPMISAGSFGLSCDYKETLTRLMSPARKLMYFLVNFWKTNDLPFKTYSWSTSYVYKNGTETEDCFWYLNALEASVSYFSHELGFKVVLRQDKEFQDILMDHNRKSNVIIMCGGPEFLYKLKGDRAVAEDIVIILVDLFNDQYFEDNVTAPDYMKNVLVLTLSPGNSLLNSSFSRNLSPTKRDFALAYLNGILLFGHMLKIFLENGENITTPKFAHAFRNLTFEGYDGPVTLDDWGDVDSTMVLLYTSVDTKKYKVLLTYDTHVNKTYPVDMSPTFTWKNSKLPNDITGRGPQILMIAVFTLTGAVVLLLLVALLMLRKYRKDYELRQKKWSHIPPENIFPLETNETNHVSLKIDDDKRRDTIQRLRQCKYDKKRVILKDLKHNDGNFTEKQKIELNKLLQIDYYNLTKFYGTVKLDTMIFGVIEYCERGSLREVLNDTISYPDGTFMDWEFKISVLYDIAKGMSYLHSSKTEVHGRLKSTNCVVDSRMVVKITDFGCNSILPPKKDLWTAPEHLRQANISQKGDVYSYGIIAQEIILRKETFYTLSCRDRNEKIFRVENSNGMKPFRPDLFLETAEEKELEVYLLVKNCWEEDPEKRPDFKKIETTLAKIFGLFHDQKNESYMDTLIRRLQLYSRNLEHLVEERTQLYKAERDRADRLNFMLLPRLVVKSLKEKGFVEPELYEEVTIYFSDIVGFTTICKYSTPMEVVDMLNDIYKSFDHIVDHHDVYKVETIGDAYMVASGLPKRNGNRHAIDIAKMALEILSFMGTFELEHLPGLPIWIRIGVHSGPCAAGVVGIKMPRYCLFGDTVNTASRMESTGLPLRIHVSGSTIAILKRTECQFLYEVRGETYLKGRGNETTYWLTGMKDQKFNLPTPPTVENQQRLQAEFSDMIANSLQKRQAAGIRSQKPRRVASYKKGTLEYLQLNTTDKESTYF

Molecule | effect on Ser40 phosphorylation in HEK cells [1] | effect on Ser40 phosphorylation in HEK cells ([1]; listed as BAY 60-7750) | Ser40 phosphorylation in HEK-293 cells (significance, in words) [2]
COc1ccc(Cc2nn3c([C@@H](CCCc4ccccc4)[C@@H](C)O)nc(C)c3c(=O)[nH]2)cc1OC [BAY 60-7550] | hardly exhibit any effect | almost no effect | –
guanylin: natural agonistic ligand of GUCY2C, 15 amino acid polypeptide; commercially available rat/mouse guanylin (Chemcruz) (PNTCEICAYAACTGC) [reference compound] | – | – | modest, but significant increase
